Structures are written as SMILES.

As a reminder, the IC50 is the concentration that inhibits the measured activity by half.

This assay addresses GIRK1/4 (Homo sapiens (Human), UniProt P48544+P48549). Put plainly: GIRK1/4 inhibition, Quattro (IonWorks) population patch clamp, inward potassium current in GIRK 1/4 HEK293 stable cells (test assay No. 1). It counts as cell-based. The conditions noted are these: percentage of current inhibition normalized to DMSO-only control. The procedure: The activity of a compound according to the present invention can be assessed by the following in vitro method. • 1. Buffers: • a. External buffer: 10 mM NaCl, 50 mM Na Gluconate, 80 mM K Gluconate, 1.8 mM CaCl2, 1 mM MgCl2, 10 mM HEPES, 10 mM Glucose, pH 7.4; osmolality […]. • b. Internal buffer: 30 mM KCl, 100 mM K Gluconate, 1 mM MgCl2, 10 mM HEPES, 1 mM EGTA, 10 mM NaCl, pH 7.2; osmolality […]. • 2. Compounds: • a. Prepare seven-fold compound dilution series (10 mM to 20 uM) in 100% DMSO, in 384-well polypropylene plates. • b. Propafenone (Sigma Aldrich, catalog number P4670) is used as a positive control and DMSO for neutral control • c. Resuspend 1 ul of compounds in DMSO into 65.7 ul external buffer in 384-well polypropylene plate and load into Plate 1 section of Molecular Devices Quattro • 3. Quattro setup: • a. Load 384-well Population Patch Plate (Molecular Devices #9000-0902) into Quattro • b. Fill Quattro F-soak trough with 20% DMSO and 50% EtOH • c. Fill Quattro buffer trough with external buffer • d. Attach internal buffer flask to Quattro internal buffer tubing • e. Attach PBS (Phosphate Buffered Saline, minus Ca^++ and Mg^++, pH7.4) bottle to F-head & E-head wash on Quattro • 4. Antibiotic: • a. Resuspend 5.6 mg amphotericin B (Sigma Aldrich, catalog number A2411) in 175 ul DMSO • b. Add the resulting solution to 50 ml internal buffer, mix and attach to antibiotic tubing port on Quattro • 5. Cells: • a. Use GIRK 1/4 HEK293 stable cells (obtained from ChanTest, 14656 Neo Parkway, Cleveland, Ohio 44128) grown to […] confluency in the following cell culture medium: DMEM containing 10% (v/v) Fetal Bovine Serum, Penicillin/Streptomycin (at “1×” concentration from a 100× stock), 0.5 mg/ml G418 and 0.1 mg/ml Zeocin. • b. Wash cells with PBS (minus Ca^++ and Mg^++), Detach cells using Detachin (Genlantis, 11011 Torreyana, San Diego, Calif. 92121), and resuspend in external buffer (5 ml final volume at 2.0-2.1×10^6 cells/ml) • c. Load into cell trough of Quattro • 6. Assay Protocol: • Quattro is controlled using IonWorks v2 software to perform the following steps: • a. Add 3.5 ul cells plus 3.5 ul external buffer to wells of Quattro Patch Plate • b. Circulate amphotericin B and internal buffer onto cells • c. Apply the following voltage protocol: Pulse 1: 15 mV for 300 milliseconds (ms), followed by Pulse 2: −120 mV for 400 ms, then Pulse 3: −15 mV for 400 ms, and finally Pulse 4: −120 mV to 40 mV over 500 ms (this is a voltage ramp). • d. Measure magnitude of inward potassium current at time point between 1200-1220 ms from start of Pulse 1 (i.e. during the voltage ramp phase). • e. Add 3.5 ul of diluted compounds (or DMSO) to wells and repeat steps c-d (final compound concentrations are 50 uM to 0.1 uM, for potent compounds 0.5 uM to 0.01 uM and each concentration is tested in quadruplicate—i.e. in 4 separate wells). • f. The difference between current magnitude pre vs. post-compound gives a measure of GIRK1/4 inhibition. • 7. Data analysis:
IC50 values are calculated by plotting the percentage of current inhibition (normalized to the DMSO-only control) as a function of compound concentration using standard data analysis software.
Background: The patch-clamp technique gives a direct electrical read-out from membranes.

Chain of GIRK1/4 (P48549 whole entry): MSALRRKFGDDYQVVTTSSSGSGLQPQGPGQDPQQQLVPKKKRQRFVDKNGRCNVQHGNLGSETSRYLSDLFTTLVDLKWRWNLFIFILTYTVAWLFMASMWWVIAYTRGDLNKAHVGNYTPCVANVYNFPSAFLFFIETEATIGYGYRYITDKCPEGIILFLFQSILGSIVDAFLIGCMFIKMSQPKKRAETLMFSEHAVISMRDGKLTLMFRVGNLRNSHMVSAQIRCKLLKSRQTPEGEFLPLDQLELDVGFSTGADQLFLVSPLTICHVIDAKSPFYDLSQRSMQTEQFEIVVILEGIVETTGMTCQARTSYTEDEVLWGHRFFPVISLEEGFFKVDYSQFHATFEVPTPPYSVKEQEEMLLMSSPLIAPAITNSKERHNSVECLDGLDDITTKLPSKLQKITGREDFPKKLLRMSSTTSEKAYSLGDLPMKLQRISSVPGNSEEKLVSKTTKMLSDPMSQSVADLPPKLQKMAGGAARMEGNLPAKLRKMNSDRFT
Chain of GIRK1/4 (P48544 whole entry): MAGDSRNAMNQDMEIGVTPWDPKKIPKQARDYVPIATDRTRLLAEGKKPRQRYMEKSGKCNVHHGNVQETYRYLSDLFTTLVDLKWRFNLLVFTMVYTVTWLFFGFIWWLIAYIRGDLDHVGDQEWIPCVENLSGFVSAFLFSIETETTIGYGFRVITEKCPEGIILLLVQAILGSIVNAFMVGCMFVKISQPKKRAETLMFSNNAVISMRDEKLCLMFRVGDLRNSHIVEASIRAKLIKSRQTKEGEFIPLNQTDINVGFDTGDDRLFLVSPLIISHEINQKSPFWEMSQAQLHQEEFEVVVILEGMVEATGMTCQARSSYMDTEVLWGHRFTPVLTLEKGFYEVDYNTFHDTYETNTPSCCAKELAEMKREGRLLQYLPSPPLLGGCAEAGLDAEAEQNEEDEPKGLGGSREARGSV

As to `Cc1cc(=O)c2c(OCC(O)C(C)(C)O)ncc(Cl)c2n1-c1c(Cl)cccc1Cl` (single isomer, unassigned) [Example 58, 8-chloro-1-(2,6-dichlorophenyl)-5-(2,3-dihydroxy-3-methylbutoxy)-2-methyl-1,6-naphthyridin-4(1H)-one], the IC50 was found to be 17 nM. That is a double-digit nanomolar value.

With `Cc1cc(=O)c2c(OCC(O)C(C)(C)O)ncc(Cl)c2n1-c1c(Cl)cccc1Cl` (single isomer, unassigned) [Example 59, 8-chloro-1-(2,6-dichlorophenyl)-5-(2,3-dihydroxy-3-methylbutoxy)-2-methyl-1,6-naphthyridin-4(1H)-one], the IC50 turned out to be 14 nM. This IC50 and that of the compound before are within 1.5-fold of each other.

`O=c1cc(CO)n(-c2c(Cl)cccc2Cl)c2c(Cl)cnc(CCC(O)CO)c12` (single isomer, unassigned) [Example 76, 8-chloro-1-(2,6-dichlorophenyl)-5-(3,4-dihydroxybutyl)-2-(hydroxymethyl)-1,6-naphthyridin-4(1H)-one]: the IC50 came to 355 nM. Against the preceding compound, the IC50 is about 25-fold higher.

`O=c1cc(CO)n(-c2c(Cl)cccc2Cl)c2c(Cl)cnc(CCC(O)CO)c12` (single isomer, unassigned) [Example 77, 8-chloro-1-(2,6-dichlorophenyl)-5-(3,4-dihydroxybutyl)-2-(hydroxymethyl)-1,6-naphthyridin-4(1H)-one] registered a 50% inhibitory concentration (IC50) of 366 nM.

With `O=c1cc(CO)n(-c2c(Cl)cccc2Cl)c2c(Cl)cnc(CC(O)CO)c12` (single isomer, unassigned) [Example 79, 8-Chloro-1-(2,6-dichlorophenyl)-5-(2,3-dihydroxypropyl)-2-(hydroxymethyl)-1,6-naphthyridin-4(1H)-one], the IC50 worked out at 299 nM.

The compound `O=c1cc(CO)n(-c2c(Cl)cccc2Cl)c2c(Cl)cnc(CC(O)CO)c12` (single isomer, unassigned) [Example 80, 8-Chloro-1-(2,6-dichlorophenyl)-5-(2,3-dihydroxypropyl)-2-(hydroxymethyl)-1,6-naphthyridin-4(1H)-one] registered an IC50 of 365 nM.

On to `O=c1cc(CO)n(-c2c(Cl)cccc2Cl)c2c(Cl)cnc(C(O)CO)c12` (single isomer, unassigned) [Example 83, 8-Chloro-1-(2,6-dichlorophenyl)-5-(1,2-dihydroxyethyl)-2-(hydroxymethyl)-1,6-naphthyridin-4(1H)-one], for which inhibition was half-maximal at 278 nM (IC50).

For `O=c1cc(CO)n(-c2c(Cl)cccc2Cl)c2c(Cl)cnc(C(O)CO)c12` (single isomer, unassigned) [Example 84, 8-Chloro-1-(2,6-dichlorophenyl)-5-(1,2-dihydroxyethyl)-2-(hydroxymethyl)-1,6-naphthyridin-4(1H)-one], the midpoint of inhibition, the IC50, lay at 116 nM.

Compound `O=c1cc(CO)n(-c2c(Cl)cccc2Cl)c2c(Cl)cnc(OC[C@@H](O)CO)c12` [Example 1, (S)-8-Chloro-1-(2,6-dichlorophenyl)-5-(2,3-dihydroxpropoxy)-2-(hydroxymethyl)-1,6-naphthyridin-4(1H)-one] had an IC50 of 104 nM.

`O=c1cc(CO)n(-c2c(Cl)cccc2Cl)c2c(Cl)cnc(OC[C@H](O)CO)c12` [Example 2, (R)-8-chloro-1-(2,6-dichlorophenyl)-5-(2,3-dihydroxypropoxy)-2-(hydroxymethyl)-1,6-naphthyridin-4(1H)-one]: inhibition was half-maximal at 159 nM (IC50).

Compound `O=c1cc(CO)n(-c2c(Cl)cccc2Cl)c2c(Cl)cnc(OCC(O)CO)c12` (stereo not drawn) [Example 3, 8-chloro-1-(2,6-dichlorophenyl)-5-(2,3-dihydroxypropoxy)-2-(hydroxymethyl)-1,6-naphthyridin-4(1H)-one] had an IC50 of 131 nM. This IC50 and that of the compound before are within 1.5-fold of each other.

In turn, `CC(C)(O)C(O)COc1ncc(Cl)c2c1c(=O)cc(CO)n2-c1c(Cl)cccc1Cl` (stereo not drawn) [Example 4, 8-chloro-1-(2,6-dichlorophenyl)-5-(2,3-dihydroxy-3-methylbutoxy)-2-(hydroxymethyl)-1,6-naphthyridin-4(1H)-one] gave an IC50 of 141 nM.

Compound `O=c1cc(CO)n(-c2c(Cl)cccc2Cl)c2c(Cl)cnc(OCC3(CO)COC3)c12` [Example 5, 8-chloro-1-(2,6-dichlorophenyl)-2-(hydroxymethyl)-5-((3-(hydroxymethyl)oxetan-3-yl)methoxy)-1,6-naphthyridin-4(1H)-one] displayed an IC50 of 235 nM.

The compound `O=c1cc(CO)n(-c2c(Cl)cccc2Cl)c2c(Cl)cnc(OCCOCCOCCOCCO)c12` [Example 7, 8-chloro-1-(2,6-dichlorophenyl)-5-(2-(2-(2-(2-hydroxyethoxy)ethoxy)ethoxy)ethoxy)-2-(hydroxymethyl)-1,6-naphthyridin-4(1H)-one] had an IC50 of 431 nM. Compared with the last compound, the IC50 is about 1.8-fold higher.

In the case of `O=c1cc(CO)n(-c2c(Cl)cccc2Cl)c2c(Cl)cnc(OC(CO)CO)c12` [Example 9, 8-chloro-1-(2,6-dichlorophenyl)-5-((1,3-dihydroxypropan-2-yl)oxy)-2-(hydroxymethyl)-1,6-naphthyridin-4(1H)-one], the IC50 stood at 257 nM.

As for `O=c1cc(CO)n(-c2c(Cl)cccc2Cl)c2c(Cl)cnc(OCC3COC3)c12` [Example 10, 8-chloro-1-(2,6-dichlorophenyl)-2-(hydroxymethyl)-5-(oxetan-3-ylmethoxy)-1,6-naphthyridin-4(1H)-one], the IC50 is 120 nM. Compared with the last compound, the IC50 is about 2.1-fold lower.

On to `COCCOCCOc1ncc(Cl)c2c1c(=O)cc(CO)n2-c1c(Cl)cccc1Cl` [Example 11, 8-chloro-1-(2,6-dichlorophenyl)-2-(hydroxymethyl)-5-(2-(2-methoxyethoxy)ethoxy)-1,6-naphthyridin-4(1H)-one], for which the IC50 worked out at 73 nM. Against the preceding compound, the IC50 is about 1.6-fold lower.

`O=c1cc(CO)n(-c2c(Cl)cccc2Cl)c2c(Cl)cnc(OCCO)c12` [Example 12, 8-chloro-1-(2,6-dichlorophenyl)-5-(2-hydroxyethoxy)-2-(hydroxymethyl)-1,6-naphthyridin-4(1H)-one] showed an IC50 of 36 nM.

With `O=c1cc(CO)n(-c2c(Cl)cccc2Cl)c2c(Cl)cnc(NCCOCCOCCOCCO)c12` [Example 13, 8-chloro-1-(2,6-dichlorophenyl)-5-((2-(2-(2-(2-hydroxyethoxy)ethoxy)ethoxy)ethyl)amino)-2-(hydroxymethyl)-1,6-naphthyridin-4(1H)-one], the IC50 was determined as 71 nM.

The compound `Cc1cc(=O)c2c(OCCOCCOCCOCCOCCO)ncc(Cl)c2n1-c1c(Cl)cccc1Cl` [Example 14, 8-chloro-1-(2,6-dichlorophenyl)-5-((14-hydroxy-3,6,9,12-tetraoxatetradecyl)oxy)-2-methyl-1,6-naphthyridin-4(1H)-one] showed an IC50 of 52 nM.

`COCCOCCOCCOCCOCCOCCOc1ncc(Cl)c2c1c(=O)cc(C)n2-c1c(Cl)cccc1Cl` [Example 15, 5-(2,5,8,11,14,17-hexaoxanonadecan-19-yloxy)-8-chloro-1-(2,6-dichlorophenyl)-2-methyl-1,6-naphthyridin-4(1H)-one] yielded an IC50 of 25 nM. Against the preceding compound, the IC50 is about 2.1-fold lower.

In turn, `Cc1cc(=O)c2c(NCCOCCOCCOCCO)ncc(Cl)c2n1-c1c(Cl)cccc1C#N` [Example 16, 3-chloro-2-(8-chloro-5-((2-(2-(2-(2-hydroxyethoxy)ethoxy)ethoxy)ethyl)amino)-2-methyl-4-oxo-1,6-naphthyridin-1(4H)-yl)benzonitrile] had an IC50 of 176 nM.

In the case of `Cc1cc(=O)c2c(NCC(O)C(=O)NCCO)ncc(Cl)c2n1-c1c(Cl)cccc1Cl` (stereo not drawn) [Example 17, 3-((8-chloro-1-(2,6-dichlorophenyl)-2-methyl-4-oxo-1,4-dihydro-1,6-naphthyridin-5-yl)amino)-2-hydroxy-N-(2-hydroxyethyl)propanamide], the IC50 is 60 nM.

In turn, `Cc1cc(=O)c2c(OCC(O)CO)cncc2n1-c1c(Cl)cc(C#N)cc1Cl` (stereo not drawn) [Example 18, 3,5-dichloro-4-(5-(2,3-dihydroxypropoxy)-2-methyl-4-oxo-1,7-naphthyridin-1(4H)-yl)benzonitrile] displayed an IC50 of 1860 nM.

(Values after patent US11530213B2, “Naphthyridinone derivatives and their use in the treatment of arrhythmia” (NOVARTIS AG, priority 2016, dated 2022).)
